According to patent publication US20080206253A1, “Method For Preventing or Treating Pain in a Mammal” (priority 2005, published 2008):
“Also recorded” adds a separate entry of the source.

Experiments:
Type in all cases: in vivo, rat
[1] = test system: phosphorylated p38 (P-p38); assay: Formalin-induced phosphorylation of spinal p38 (Western blot); conditions: IT p38α AS 30 μg or p38β AS 20 μg for 5 days; assessed 15 minutes after formalin; in comparison to MS treated rats
Method: Injection of formalin into the hind paw leads to phosphorylation of p38 MAP kinase in spinal cord, by 5 minutes after injection. Svensson et al., J Neurochem 86: 1534-1544, 2003b. A full time course was performed (0, 5, 15, 20, 30, 60 min) for formalin-induced phosphorylation of spinal p38 and found peak p38 phosphorylation at 15 min (FIG. 6A). As shown above, down regulation of spinal p380, leads to attenuation of formalin-induced hyperalgesia, it was hypothesized that down-regulation of spinal p38, would reduce the amount of phosphorylated p38 in the spinal cord after formalin injection.
(A) Representative western blots showing levels of P-p38, total p38 and β-actin in the contralateral (left side) and ipsilateral (right side) lumbar spinal cord at different time points after injection of formalin (2.5%, 50 μl) into the dorsal side of the right hind paw. (B) Rats were naïve (no IT treatment, no formalin paw injection) or treated with p38α AS (30 μg), p38β AS (20 μg) or missense (30 μg) for 5 days. On day six, formalin was injected to the hind paw and the level of phosphorylated p38 (P-p38) assessed 15 minutes after injection. […]
Western blot. […] After washing, the antibody-protein complexes were probed with appropriate secondary antibodies labeled with horseradish peroxidase for 1 hr at room temperature and detected with chemiluminescent reagents (SuperSignal, Pierce, Rockford, Ill.). […]

[2] = test system: rats, IT SP (spinal NK-1 receptors); assay: IT substance P-evoked thermal hyperalgesia (paw withdrawal latency, Hargreaves device); conditions: for IT SP-induced thermal hyperalgesia (paw withdrawal latency): IT p38α AS 30 μg or p38β AS 20 μg daily for five days, IT SP 30 nmol, compared with MS group; for Base line thermal thresholds: before IT SP, after five days of IT treatment
Method: (§1) Yaksh et al., Nature 286: 155-157, 1980; Yaksh, Trends Pharmacol Sci 20: 329-337, 1999. […] Malmberg and Yaksh, Science 257: 1276-1279, 1992; Svensson et al., J Neurochem 86: 1534-1544, 2003. […] To investigate the contribution of p38α and p38β to SP-evoked hyperalgesia and p38 phosphorylation, spinal delivery of p38α and p38β AS and MS was carried out. Thermal withdrawal latencies was assessed after IT injection of SP and lumbar spinal cords collected immediately to compare the degree of spinal p38 phosphorylation at the hypothesized time of peak phosphorylation. IT injection of SP into the MS group produced an expected reduction of thermal withdrawal latency in comparison with IT saline injection into to vehicle treated animals (FIG. 7C). […] In contrast, IT SP-induced thermal hyperalgesia was attenuated in rats which had received p38β AS (FIG. 7E). […] Stripping and reprobing the western blot membranes confirmed that p38α protein expression was knocked down in p38α AS treated group (FIG. 7D) as well as p38β in the p38β AS group (FIG. 7F).
Nociceptive models. To directly induce spinal sensitization, rats received intrathecal injections of sP (30 nmol) which activates spinal NK-1 receptors and produces thermal hyperalgesia. Hua et al., Neuroscience 89: 525-534, 1999a; Piercey et al., Science 214: 1361-1363, 1981; Yashpal and Henry, Can J Physiol Pharmacol 61: 303-307, 1983. Thermally evoked paw withdrawal responses were assessed using a Hargreaves type testing device. Dirig et al., J Neurosci Methods 76: 183-191, 1997. Briefly, rats were placed on a glass surface maintained at 30° C. The thermal nociceptive stimulus originates from a projection bulb below the glass surface, and the stimulus is delivered separately to one hind paw at a time. The animals were allowed to acclimatize on the glass surface and basal paw withdrawal latencies (PWL) were then assessed for left and right paws at time (T)=−40, =30 and −20 min and expressed as the mean of the six measurements. At T=−10 min the animals received intrathecal vehicle or drug and at T=0, sP was injected. Withdrawal latencies were then assessed at T=15, 30, 45 and 60 min. Paw withdrawal latency for each group was expressed as the mean at each time point.

[3] = test system: phosphorylated p38 (P-p38); assay: IT substance P-evoked spinal p38 phosphorylation (Western blot); conditions: IT AS daily for five days, assessed 30 minutes after IT SP injection, compared to the MS group
Method: as §1
(A) Graph displaying paw withdrawal latency (PWL) plotted versus time. […] (B) Representative western blots showing levels of P-p38, total p38 and β-actin in lumbar spinal cord at different time points after IT injection of SP (30 nmol). IT-SP induced p38 phosphorylation peaks 30 minutes after SP injection. (C, E) Graph showing PWL assessed 15 and […] after bolus injection of IT saline or IT SP injection in rats treated with IT ACSF, MS (30 μg), p38α AS (30 fig) or p38β AS (20 μg) daily for five days. […] IT injection of MS or ACSF had no effect on IT SP-evoked thermal hyperalgesia. Each time point represents the mean ±SEM (n=4-5 per group). (D, F) Representative western blots showing the level of P-p38, p38α and p38β and β-actin protein expression assessed 30 minutes after IT SP injection.
Western blot. Prior to sacrifice, rats were deeply anesthetized and after decapitation the spinal cords were ejected from the vertebral column by a saline-filled syringe. The lumbar part of the spinal cord was immediately homogenized in extraction buffer (50 mM Tris buffer, pH 8.0, containing 0.5% Triton X-100, 150 mM NaCl, 1 mM EDTA, phosphatase and protease inhibitors) by sonication. […] After washing, the antibody-protein complexes were probed with appropriate secondary antibodies labeled with horseradish peroxidase for 1 hr at room temperature and detected with chemiluminescent reagents (SuperSignal, Pierce, Rockford, Ill.). […] Intensity of immunoreactive bands was quantified using ImageQuant software (Molecular Dynamics, Sunnyvale, Calif.). p38 immuno-positive bands were normalized relative to β-actin.

Substance | phosphorylated p38 in the spinal cord after formalin injection [1] | IT SP-induced thermal hyperalgesia (paw withdrawal latency) [2] | Base line thermal thresholds [2] | phosphorylation of spinal p38 following IT SP [3] | phosphorylation of spinal p38 following IT SP ([3]; listed as p38 AS)
p38α AS: 20-nucleotide 2′-MOE phosphorothioate chimeric antisense AGGTGCTCAGGACTCCATTT, beginning at position 1081 in the rat p38α mRNA (all phosphorothioate, sugars by position and methylation of C not given here; 2'-MOE chimeric (gapmer) antisense) | did not prevent spinal p38 phosphorylation | not affected | 11.49 ± 0.3 s | did not show a reduction; also recorded: No difference in P-p38 | –
p38β AS: 20-nucleotide 2′-MOE phosphorothioate chimeric antisense GTATGTCCTCCTCGCGTGGA, beginning at position 439 in the rat p38β mRNA (all phosphorothioate, sugars by position and methylation of C not given here; 2'-MOE chimeric (gapmer) antisense) | reduction of phosphorylated p38 | attenuated; also recorded: blocked IT SP-evoked thermal hyperalgesia | 10.8 ± 0.5 s | pronounced reduction | significantly lower
